One experiment has as its target BChE (Homo sapiens, UniProt P06276). The experiment is described as follows: Kinetic study against BChE (Lineweaver–Burk and Dixon plots). The class given is biochemical. Conditions: for Mode of inhibition of BChE: Lineweaver–Burk plot; for Ki: from Dixon plots. The method, then:
(§1) The Lineweaver–Burk plots were drawn to determine the type of inhibition these compounds display against AChE and BChE (refer to Figure S2. In the Supplementary Material for the corresponding graphs).
(§2) Kinetic evaluation of 2l and 2p against ChEs or β-secretase were conducted following similar procedures previously employed for the corresponding flavonol precursors.

The target of experiment [1] is acetylcholinesterase (AChE) (Homo sapiens, UniProt P22303). Put plainly: biochemical. The format is biochemical. The note with it: for SI BChE/AChE: AChE selectivity index = IC50 (BChE)/IC50 (AChE); for IC50: mean ± SD, three independent experiments. The method, then: (§3) The IC50 and standard deviation values were determined graphically using Graph Pad Prism.
Chain of acetylcholinesterase (AChE) (P22303 32-614): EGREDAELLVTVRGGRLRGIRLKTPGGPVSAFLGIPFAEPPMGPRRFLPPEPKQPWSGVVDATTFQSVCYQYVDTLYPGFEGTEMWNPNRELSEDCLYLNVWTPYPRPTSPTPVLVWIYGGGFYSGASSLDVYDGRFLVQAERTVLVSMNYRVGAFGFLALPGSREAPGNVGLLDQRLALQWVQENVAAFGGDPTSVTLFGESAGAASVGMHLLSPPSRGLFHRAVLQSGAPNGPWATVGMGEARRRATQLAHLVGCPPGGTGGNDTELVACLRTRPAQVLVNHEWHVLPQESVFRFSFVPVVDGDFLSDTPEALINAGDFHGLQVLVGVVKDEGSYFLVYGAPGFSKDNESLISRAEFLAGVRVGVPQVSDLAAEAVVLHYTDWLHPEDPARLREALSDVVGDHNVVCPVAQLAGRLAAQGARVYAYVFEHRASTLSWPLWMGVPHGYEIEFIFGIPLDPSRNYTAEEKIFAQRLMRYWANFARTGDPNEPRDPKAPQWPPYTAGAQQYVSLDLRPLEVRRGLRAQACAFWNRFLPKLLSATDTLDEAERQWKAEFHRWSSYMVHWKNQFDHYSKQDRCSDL
Experiment [2] concerns the target T1, β-secretase (BACE-1) (Homo sapiens, UniProt P56817).
T1 construct: purchased Pan Vera; host or cells: baculovirus expression system
The experiment is described as follows: In vitro β-secretase inhibitory FRET assay. The format is biochemical. Conditions: 60 min incubation, read-out: IC50 (µM) against β-secretase activity. The method, then:
The inhibition ratio was calculated using the following equation:Inhibition (%) = [1 − (S − S0)/(C − C0)] × 100(1) where C is the fluorescence of control (enzyme, assay buffer, and substrate) after 60 min of incubation, C0 is the fluorescence of control at time 0, S is the fluorescence of tested samples (enzyme, sample solution, and substrate) after 60 min of incubation, and S0 the fluorescence of the tested samples at time 0.

In experiment [3] the target is butyrylcholinesterase (BChE) (Homo sapiens, UniProt P06276). Put plainly: biochemical. The note with it: for SI AChE/BChE: BChE selectivity index = IC50 (AChE)/IC50 (BChE); for IC50: mean ± SD, three independent experiments. The method, then:
as §3

The target in a further experiment is AChE (Homo sapiens, UniProt P22303). The experiment is described as follows: Kinetic study against AChE (Lineweaver–Burk and Dixon plots). The format is biochemical. Conditions: for Mode of inhibition of AChE: Lineweaver–Burk plot; for Ki: from Dixon plots, read-out: Inhibition constant (Ki) against AChE. The method, then:
as §1, §2

Experiment [4] concerns the target T1, β-secretase (BACE-1). Put plainly: Kinetic study against β-secretase (Lineweaver–Burk and Dixon plots). The format is biochemical. The note with it: for Mode of inhibition of β-secretase: Lineweaver–Burk plot; for Ki: from Dixon plots, read-out: Ki for inhibition of β-secretase. The method, then:
as §1, §2

Experiment [5] in a line: DPPH radical scavenging activity assay. Conditions: DPPH 0.20 mM in methanol, 45 min in the dark, mean ± SD. The method, then: The test compounds at various concentration ranging from (0 to 40 µM) in DMSO were mixed with a solution of DPPH (0.20 mM) in methanol. […] All tests and analyses were run in triplicate and averaged. The inhibition was calculated in terms of percentage using the formula below:DPPH radical scavenged (%) = [(AbC ‒ AbS)/AbC] × 100(2) where AbC is absorbance of control and AbS the absorbance of the test sample.
(DPPH is a stable violet radical that fades when it is reduced.)

Each structure is given as a SMILES string. “And” between values parts separate entries of the source, which are not always exact repeats. Identical values can stand only once.

T1 sequence (P56817 46-501): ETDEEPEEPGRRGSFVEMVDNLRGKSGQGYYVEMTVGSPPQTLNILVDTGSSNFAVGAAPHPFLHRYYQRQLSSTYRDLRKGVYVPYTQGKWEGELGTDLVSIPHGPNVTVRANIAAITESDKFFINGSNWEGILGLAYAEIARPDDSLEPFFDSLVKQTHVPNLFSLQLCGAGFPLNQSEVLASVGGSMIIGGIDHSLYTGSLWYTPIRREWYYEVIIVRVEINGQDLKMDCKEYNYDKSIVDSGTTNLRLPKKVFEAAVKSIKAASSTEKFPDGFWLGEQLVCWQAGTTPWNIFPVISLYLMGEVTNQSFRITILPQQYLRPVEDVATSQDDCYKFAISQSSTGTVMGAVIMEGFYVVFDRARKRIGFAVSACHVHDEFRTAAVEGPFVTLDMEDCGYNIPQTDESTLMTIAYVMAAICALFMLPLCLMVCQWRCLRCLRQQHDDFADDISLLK
Chain of butyrylcholinesterase (BChE) (P06276 29-602): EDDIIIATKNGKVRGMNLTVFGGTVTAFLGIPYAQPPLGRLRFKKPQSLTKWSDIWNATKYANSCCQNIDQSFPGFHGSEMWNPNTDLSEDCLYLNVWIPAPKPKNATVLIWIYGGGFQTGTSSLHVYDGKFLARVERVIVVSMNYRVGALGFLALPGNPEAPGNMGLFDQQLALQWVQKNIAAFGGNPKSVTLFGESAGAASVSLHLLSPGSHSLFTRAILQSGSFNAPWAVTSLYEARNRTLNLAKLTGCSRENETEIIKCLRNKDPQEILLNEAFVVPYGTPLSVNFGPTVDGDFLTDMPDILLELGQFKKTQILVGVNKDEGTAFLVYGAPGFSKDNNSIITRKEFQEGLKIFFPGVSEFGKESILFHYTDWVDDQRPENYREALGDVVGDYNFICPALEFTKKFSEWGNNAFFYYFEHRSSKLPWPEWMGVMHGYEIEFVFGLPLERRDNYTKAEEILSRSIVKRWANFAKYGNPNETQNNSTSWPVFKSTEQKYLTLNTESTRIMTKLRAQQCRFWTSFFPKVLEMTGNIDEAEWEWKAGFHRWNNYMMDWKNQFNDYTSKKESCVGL
Chain of BChE (P06276 29-602): as above
Chain of AChE (P22303 32-614): as the sequence (P22303 32-614) above

On to `COc1ccc(-c2oc3cc(Br)c(I)cc3c(=O)c2OC2OC(COC(C)=O)C(OC(C)=O)C(OC(C)=O)C2OC(C)=O)cc1` (stereo not drawn) [Compound 2l, 7-Bromo-6-iodo-2-(4-methoxyphenyl)-4H-chromen-4-one-3-O-2,3,4,6-O-tetraacetyl-β-d-glucopyranoside], for which, on BChE, the “Mode of inhibition of BChE” value is “non-competitive” and affinity was put at a Ki of 1.51 ± 0.04 µM. In experiment [1], the “SI BChE/AChE” value was 1.43 and the IC50 (in general, the concentration that gives 50% inhibition) turned out to be 5.05 ± 0.02 µM. For the same molecule, the half-maximal inhibitory concentration (IC50) on β-secretase (BACE-1) [2] amounted to 18.3 ± 0.01 µM. In experiment [3], the “SI AChE/BChE” value is recorded as 0.70 and the midpoint of inhibition, the IC50, lay at 7.24 ± 0.03 µM. On AChE, the “Mode of inhibition of AChE” value is listed as “non-competitive” and the Ki (as a rule, a measure of affinity in units of concentration, obtained from inhibition or displacement) turned out to be 1.38 ± 0.62 µM. For the same molecule, on β-secretase (BACE-1) [4], the “Mode of inhibition of β-secretase” value is recorded as “non-competitive” and the Ki is 2.42 ± 0.05 µM. Further, the IC50 in experiment [5] was determined as 21.6 ± 0.03 µM.
Regarding `COc1ccc(-c2oc3cc(OC)c(I)cc3c(=O)c2OC2OC(COC(C)=O)C(OC(C)=O)C(OC(C)=O)C2OC(C)=O)cc1` (stereo not drawn) [Compound 2p, 6-Iodo-7-methoxy-2-(4-methoxyphenyl)-4H-chromen-4-one-3-O-2,3,4,6-O-tetraacetyl-β-d-glucopyranoside], at BChE, the “Mode of inhibition of BChE” value is “non-competitive” and the inhibitory constant (Ki) was determined as 1.62 ± 0.03 µM. Also, in experiment [1], the “SI BChE/AChE” value stood at 0.57 and the half-inhibitory concentration (IC50) was found to be 9.19 ± 0.03 µM. The IC50 at β-secretase (BACE-1) [2] came to 25.2 ± 0.15 µM. In experiment [3], the “SI AChE/BChE” value worked out at 1.75 and the IC50 is 5.21 ± 0.03 µM. Also, on AChE, the “Mode of inhibition of AChE” value is recorded as “non-competitive” and the inhibition constant (Ki) amounted to 2.36 ± 0.32 µM. Further, at β-secretase (BACE-1) [4], the “Mode of inhibition of β-secretase” value was “non-competitive” and the Ki came out at 2.94 ± 0.02 µM. This molecule registered a concentration for half-maximal inhibition (IC50) in experiment [5] of 17.9 ± 0.04 µM.
Consider `O=C1O[C@H]([C@@H](O)CO)C(O)=C1O` [Ascorbic acid, ascorbic acid, reference compound], for which, in experiment [5], 5.5 ± 0.02 µM corresponded to half-maximal inhibition (IC50).
As for `O=c1c(O)c(-c2ccc(O)c(O)c2)oc2cc(O)cc(O)c12` [Quercetin, quercetin, reference compound], in experiment [5], half-maximal inhibition (IC50) was put at 3.1 µM.
Turning to `CC(=O)OC[C@H]1O[C@@H](Oc2c(-c3ccc(F)cc3)oc3cc(F)c(I)cc3c2=O)[C@H](OC(C)=O)[C@@H](OC(C)=O)[C@@H]1OC(C)=O` [Compound 2b, 7-Fluoro-(4-fluorophenyl)-6-iodo-4H-chromen-4-one-3-O-2,3,4,6-O-tetraacetyl-β-d-glucopyranoside], in experiment [1], the “SI BChE/AChE” value is 0.78 and the IC50 amounted to 28.2 ± 0.02 µM. Further, in experiment [3], the “SI AChE/BChE” value came to 1.3 and inhibition was half-maximal at 21.9 ± 0.04 µM (IC50).
For `CC(=O)OC[C@H]1O[C@@H](Oc2c(-c3ccc(Cl)cc3)oc3cc(F)c(I)cc3c2=O)[C@H](OC(C)=O)[C@@H](OC(C)=O)[C@@H]1OC(C)=O` [Compound 2c, 7-Fluoro-2-(4-Chlorophenyl)-6-iodo-4H-chromen-4-one-3-O-2,3,4,6-O-tetraacetyl-β-d-glucopyranoside], in experiment [1], the “SI BChE/AChE” value worked out at 1.25 and the IC50 came to 24.74 ± 0.03 µM. In experiment [3], the “SI AChE/BChE” value is reported as 0.80 and the IC50 was 30.84 ± 0.04 µM.
As for `COc1cc2oc(-c3ccc(F)cc3)c(OC3OC(COC(C)=O)C(OC(C)=O)C(OC(C)=O)C3OC(C)=O)c(=O)c2cc1I` (stereo not drawn) [Compound 2n, 2-(4-Fluorophenyl)-6-Iodo-7-methoxy-4H-chromen-4-one-3-O-2,3,4,6-O-tetraacetyl-β-d-glucopyranoside], in experiment [1], the “SI BChE/AChE” value is 5.49; the IC50 is 6.33 µM and 6.23 µM. Further, in experiment [3], the “SI AChE/BChE” value is given as 0.18 and the 50% inhibitory concentration (IC50) was found to be 34.21 ± 0.02 µM. Also, in experiment [5], the half-inhibitory concentration (IC50) turned out to be 14.4 ± 0.02 µM.
For the molecule `CC(=O)OCC1OC(Oc2c(-c3ccc(Cl)cc3)oc3cc(Br)c(I)cc3c2=O)C(OC(C)=O)C(OC(C)=O)C1OC(C)=O` (stereo not drawn) [Compound 2k, 7-Bromo-2-(4-chlorophenyl)-6-iodo-4H-chromen-4-one-3-O-2,3,4,6-O-tetraacetyl-β-d-glucopyranoside], in experiment [1], the “SI BChE/AChE” value was determined as 5.78 and 5.18 ± 0.01 µM corresponded to half-maximal inhibition (IC50). Besides, in experiment [3], the “SI AChE/BChE” value is on record as 0.17 and it took 29.95 ± 0.02 µM to reach half-maximal inhibition (IC50). The molecule further yielded a concentration for half-maximal inhibition (IC50) in experiment [5] of 11.4 ± 0.02 µM.
The matching figures for `CC(=O)OCC1OC(Oc2c(-c3ccc(Cl)cc3)oc3cc(Cl)c(I)cc3c2=O)C(OC(C)=O)C(OC(C)=O)C1OC(C)=O` (stereo not drawn) [Compound 2g, 7-Chloro-2-(4-chlorophenyl)-6-iodo-4H-chromen-4-one-3-O-2,3,4,6-O-tetraacetyl-β-d-glucopyranoside]: 0.23, 31.44 ± 0.13 µM, 4.35, 7.15 ± 0.01 µM and 13.1 ± 0.01 µM.
For `COc1ccc(-c2oc3cc(F)c(I)cc3c(=O)c2O[C@@H]2O[C@H](COC(C)=O)[C@@H](OC(C)=O)[C@H](OC(C)=O)[C@H]2OC(C)=O)cc1` [Compound 2d, 7-Fluoro-6-iodo-2-(4-methoxyphenyl)-4H-chromen-4-one-3-O-2,3,4,6-O-tetraacetyl-β-d-glucopyranoside], in experiment [1], the “SI BChE/AChE” value came to 0.32 and the IC50 was determined as 60.4 ± 0.05 µM. Further, in experiment [3], the “SI AChE/BChE” value stood at 3.13 and the midpoint of inhibition, the IC50, lay at 19.25 ± 0.11 µM.
